Source: US8487103B2 (Roche Palo Alto LLC, priority 2009, dated 2013)
pIC50: −log10 of the molar value. Structures can show the parent of a compound that is named as a salt.

What follows are molecules tested against T1, HCV polymerase (NS5B570n-Con1) (Hepatitis C virus genotype 1b, UniProt Q9WMX2) (assay: HCV NS5B RNA Polymerase Activity).
T1 construct: contains a 21 amino acid deletion at the C-terminus relative to the full-length HCV polymerase; 6-histidine (N); made in house; host or cells: E. coli BL21(DE) pLysS, plasmid pET 17b
Type: biochemical, HCV Con1 strain
Experimental: The enzymatic activity of HCV polymerase (NS5B570n-Con1) was measured as the incorporation of radiolabeled nucleotide monophosphates into acid insoluble RNA products. Unincorporated radiolabeled substrate was removed by filtration and scintillant was added to the washed and dried filter plate containing radiolabeled RNA product. The amount of RNA product generated by NS5B570-Con1 at the end of the reaction was directly proportional to the amount of light emitted by the scintillant.
The N-terminal 6-histidine tagged HCV polymerase, derived from HCV Con1 strain, genotype 1b (NS5B570n-Con1) contains a 21 amino acid deletion at the C-terminus relative to the full-length HCV polymerase and was purified from E. coli strain BL21(DE) pLysS. The construct, containing the coding sequence of HCV NS5B Con1 (GenBank accession number AJ242654) was inserted into the plasmid construct pET 17b, downstream of a T7 promoter expression cassette and transformed into E. coli. A single colony was grown overnight as a starter culture and later used inoculate 10 L of LB media supplemented with 100 μg/mL ampicillin at 37° C. Protein expression was induced by the addition of 0.25 mM isopropyl-β-D-thiogalactopyranoside (IPTG) when optical density at […] of the culture was between 0.6 and 0.8 and cells were harvested after 16 to 18 h at 30° C. NS5B570n-Con1 was purified to homogeneity using a three-step protocol including subsequent column chromatography on Ni-NTA, SP-Sepharose HP and Superdex 75 resins.
Each 50 μL enzymatic reaction contained 20 nM RNA template derived from the complementary sequence of the Internal Ribosome Entry Site (cIRES), 20 nM NS5B570n-Con1 enzyme, 0.5 μCi of tritiated UTP (Perkin Elmer catalog no. TRK-412; specific activity: 30 to 60 Ci/mmol; stock solution concentration from 7.5×10^−5 M to 20.6×10^−6 M), 1 μM each ATP, CTP, and GTP, 40 mM Tris-HCl pH 8.0, 40 mM NaCl, 4 mM DTT (dithiothreitol), 4 mM MgCl2, and 5 μl of compound serial diluted in DMSO. Reaction mixtures were assembled in 96-well filter plates (cat #MADVN0B, Millipore Co.) and incubated for 2 h at 30° C. Reactions were stopped by addition of 10% final (v/v) trichloroacetic acid and incubated for 40 min at 4° C. Reactions were filtered, washed with 8 reaction volumes of 10% (v/v) trichloroacetic acetic acid, 4 reaction volumes of 70% (v/v) ethanol, air dried, and 25 μl of scintillant (Microscint 20, Perkin-Elmer) was added to each reaction well.
The amount of light emitted from the scintillant was converted to counts per minute (CPM) on a Topcount® plate reader (Perkin-Elmer, Energy Range: Low, Efficiency Mode Normal, Count Time: 1 min, Background Subtract: none, Cross talk reduction: Off).
Data was analyzed in Excel® (Microsoft) and ActivityBase® (Idbs®). The reaction in the absence of enzyme was used to determine the background signal, which was subtracted from the enzymatic reactions. Positive control reactions were performed in the absence of compound, from which the background corrected activity was set as 100% polymerase activity. All data was expressed as a percentage of the positive control. The compound concentration at which the enzyme-catalyzed rate of RNA synthesis was reduced by 50% (IC50) was calculated by fitting equation (i) to the data where“Y”
[formula] corresponds to the relative enzyme activity (in %), “% Min” is the residual relative activity at saturating compound concentration, “% Max” is the relative maximum enzymatic activity, “X” corresponds to the compound concentration, and “S” is the Hill coefficient (or slope).
For `COc1c(C(C)(C)C)cc(-c2cc(Cl)c[nH]c2=O)c2ncc(-c3ccc(NS(C)(=O)=O)cc3)cc12` [Compound I-15, N-{4-[6-tert-Butyl-8-(5-chloro-2-oxo-1,2-dihydro-pyridin-3-yl)-5-methoxy-quinolin-3-yl]-phenyl}-methanesulfonamide], the pIC50 was 9.00.
Work on `COc1ccc(-c2cc(C(C)(C)C)cc3cc(-c4ccc(NS(C)(=O)=O)cc4)cnc23)c(=O)[nH]1` [Compound I-58] yielded a pIC50 of 8.22.
Work on `COc1c(C(C)(C)C)cc(-c2cc(F)c[nH]c2=O)c2ncc(-c3ccc(NS(C)(=O)=O)cc3)cc12` [Compound I-23] yielded a pIC50 of 9.00.
In the case of `COc1[nH]c(=O)c(-c2cc(C(C)(C)C)c(OC)c3cc(-c4ccc(NS(C)(=O)=O)cc4)cnc23)cc1F` [Compound I-47, N-{4-[6-tert-Butyl-8-(5-fluoro-6-methoxy-2-oxo-1,2-dihydro-pyridin-3-yl)-5-methoxy-quinolin-3-yl]-phenyl}-methanesulfonamide], the pIC50 was 7.89.
For `COc1c(C(C)(C)C)cc(N2CCC(=O)NC2=O)c2ncc(-c3ccc(NS(C)(=O)=O)cc3)cc12` [Compound I-28, N-{4-[6-tert-Butyl-8-(2,4-dioxo-tetrahydro-pyrimidin-1-yl)-5-methoxy-quinolin-3-yl]-phenyl}-methanesulfonamide], the pIC50 was 8.70.
Work on `COc1ccc(-c2cc(CC(F)(F)F)c(OC)c3cc(-c4ccc(NS(C)(=O)=O)cc4)cnc23)c(=O)[nH]1` [Compound I-54, N-{4-[5-Methoxy-8-(6-methoxy-2-oxo-1,2-dihydro-pyridin-3-yl)-6-(2,2,2-trifluoro-ethyl)-quinolin-3-yl]-phenyl}-methanesulfonamide] yielded a pIC50 of 8.66.
Work on `COc1c(C(C)(C)C)cc(-c2ccc[nH]c2=O)c2ncc(-c3ccc(N)nc3)cc12` [Compound I-43, 3-[3-(6-Amino-pyridin-3-yl)-6-tert-butyl-5-methoxy-quinolin-8-yl]-1H-pyridin-2-one] yielded a pIC50 of 8.59.
Molecule `COc1c(C(F)(F)F)cc(-n2ccc(=O)[nH]c2=O)c2ncc(-c3ccc(NS(C)(=O)=O)cc3)cc12` [Compound I-51, N-{4-[8-(2,4-Dioxo-3,4-dihydro-2H-pyrimidin-1-yl)-5-methoxy-6-trifluoromethyl-quinolin-3-yl]-phenyl}-methanesulfonamide] has a pIC50 of 8.42.
For `COc1c(C(C)(C)C)cc(-c2ccc[nH]c2=O)c2ncc(N3CC(CNS(C)(=O)=O)C3)c(Cl)c12` [Compound I-22, N-{1-[6-tert-Butyl-4-chloro-5-methoxy-8-(2-oxo-1,2-dihydro-pyridin-3-yl)-quinolin-3-yl]-azetidin-3-ylmethyl}-methanesulfonamide], the pIC50 was 7.36.
With `COc1c(C(C)(C)C)cc(-c2c[nH]c(=O)[nH]c2=O)c2ncc(-c3ccc(NS(C)(=O)=O)cc3)cc12` [Compound I-25, N-{4-[6-tert-Butyl-8-(2,4-dioxo-1,2,3,4-tetrahydro-pyrimidin-5-yl)-5-methoxy-quinolin-3-yl]-phenyl}-methanesulfonamide] the pIC50 was 9.40.
In the case of `COc1c(C(C)(C)C)cc(-c2ccc(C)[nH]c2=O)c2ncc(-c3ccc(NS(C)(=O)=O)cc3)cc12` [Compound I-24], the pIC50 was 9.00.
With `COc1c(C(C)(C)C)cc(-c2ccncc2F)c2ncc(-c3ccc(NS(C)(=O)=O)cc3)cc12` [Compound I-26] the pIC50 was 9.00.
For `COc1c(C(C)(C)C)cc(-c2ccc(C)[nH]c2=O)c2ncc(N3CC[C@H](CNS(C)(=O)=O)C3)cc12` [Compound I-46], the pIC50 was 9.05.
`COc1c(C(F)(F)F)cc(-c2ccc(C)[nH]c2=O)c2ncc(-c3ccc(NS(C)(=O)=O)cc3)cc12` [Compound I-49, N-{4-[5-Methoxy-8-(6-methyl-2-oxo-1,2-dihydro-pyridin-3-yl)-6-trifluoromethyl-quinolin-3-yl]-phenyl}-methanesulfonamidehydrobromide] showed a pIC50 of 9.15.
`Br.[2H]C([2H])([2H])C(c1cc(-c2ccc(OC)[nH]c2=O)c2ncc(-c3ccc(NS(C)(=O)=O)cc3)cc2c1OC)(C([2H])([2H])[2H])C([2H])([2H])[2H]` [Compound I-32, N-{4-[6-[1,1-di(methyl-d3)ethyl-2,2,2-d3]-5-methoxy-8-(6-methoxy-2-oxo-1,2-dihydro-pyridin-3-yl)-quinolin-3-yl]-phenyl}-methanesulfonamide] was tested, and the pIC50 was 9.10.
In the case of `COc1c(C(C)(C)C)cc(N2CCC(=O)NC2=O)c2ncc(N3CC[C@H](CNS(C)(=O)=O)C3)cc12` [Compound I-31], the pIC50 was 8.74.
For `COc1ccc(-c2cc(C3(C(F)F)CC3)c(OC)c3cc(-c4ccc(NS(C)(=O)=O)cc4)cnc23)c(=O)[nH]1` [Compound I-38], the pIC50 was 9.22.
`COc1c(C(C)(C)C)cc(Br)c2ncc(-c3ccc(NS(C)(=O)=O)cc3)cc12` [Compound I-20] gave a pIC50 of 6.65.
`COc1c(C(C)(C)C)cc(-c2ccc[nH]c2=O)c2ncccc12` [Compound I-17] gave a pIC50 of 7.42.
With `COc1c(C(F)(F)F)cc(N2CCC(=O)NC2=O)c2ncc(-c3ccc(NS(C)(=O)=O)cc3)cc12` [Compound I-29, N-{4-[8-(2,4-Dioxo-tetrahydro-pyrimidin-1-yl)-5-methoxy-6-trifluoromethyl-quinolin-3-yl]-phenyl}-methanesulfonamide] the pIC50 was 8.74.
`COc1ccc(-c2cc(C(F)(F)F)c(OC)c3cc(-c4ccc(NS(C)(=O)=O)cc4)cnc23)c(=O)[nH]1` [Compound I-50] showed a pIC50 of 9.22.
`COc1ccc(-c2cc(C(C)(C)C)c(OC)c3cc(N4CC[C@H](CNS(C)(=O)=O)C4)ccc23)c(=O)[nH]1` [Compound I-36, N-{(S)-1-[7-tert-Butyl-8-methoxy-5-(6-methoxy-2-oxo-1,2-dihydro-pyridin-3-yl)-naphthalen-2-yl]-pyrrolidin-3-ylmethyl}-methanesulfonamide] gave a pIC50 of 8.08.
Molecule `COc1ccc(-c2cc(C(C)(C)C)cc3nc(-c4ccc(NS(C)(=O)=O)cc4Cl)cnc23)c(=O)[nH]1` [Compound I-9] has a pIC50 of 9.00.
With `COc1c(C(C)(C)C)cc(N2CCCNC2=O)c2ncc(-c3ccc(NS(C)(=O)=O)cc3)cc12` [Compound I-27, N-{4-[6-tert-Butyl-5-methoxy-8-(2-oxo-tetrahydro-pyrimidin-1-yl)-quinolin-3-yl]-phenyl}-methanesulfonamide] the pIC50 was 9.15.
For `COc1c(CC(F)(F)F)cc(-c2ccc(C)[nH]c2=O)c2ncc(-c3ccc(NS(C)(=O)=O)cc3)cc12` [Compound I-53, N-{4-[5-Methoxy-8-(6-methyl-2-oxo-1,2-dihydro-pyridin-3-yl)-6-(2,2,2-trifluoro-ethyl)-quinolin-3-yl]-phenyl}-methanesulfonamide hydrobomide salt], the pIC50 was 8.02.
`COc1ccc(-c2cc(C3(C#N)CC3)c(OC)c3cc(-c4ccc(NS(C)(=O)=O)cc4)cnc23)c(=O)[nH]1` [Compound I-33] gave a pIC50 of 8.42.
For `COc1ccc(-c2cc(C(C)(C)C)cc3nc(-c4ccc(NS(C)(=O)=O)cc4F)cnc23)c(=O)[nH]1` [Compound I-11], the pIC50 was 9.00.
`COc1c(C(C)(C)C)cc(-c2ccc(C)[nH]c2=O)c2ncc(CCCCNS(C)(=O)=O)cc12` [Compound I-44, N-{4-[6-tert-Butyl-5-methoxy-8-(6-methyl-2-oxo-1,2-dihydro-pyridin-3-yl)-quinolin-3-yl]-butyl}-methanesulfonamide] gave a pIC50 of 7.91.
In the case of `COc1c(CC(F)(F)F)cc(-n2ccc(=O)[nH]c2=O)c2ncc(-c3ccc(NS(C)(=O)=O)cc3)cc12` [Compound I-56, N-{4-[8-(2,4-Dioxo-3,4-dihydro-2H-pyrimidin-1-yl)-5-methoxy-6-(2,2,2-trifluoro-ethyl)-quinolin-3-yl]-phenyl}-methanesulfonamide], the pIC50 was 7.41.
